Patent US12071424B2, “IRE1 small molecule inhibitors” (Cornell University, priority 2017, dated 2024)

What was measured:
IRE1a [1] = assay: IRE1a Endoribonuclease Nanoluciferase Assay (XBP1 luciferase reporter in 293T cells); assay type: cell-based, human; settings: Homo sapiens, HEK-293T, ER stressor, tested as Formic Acid Salt (37: HCl Salt)
Experimental: Compounds disclosed herein assessed for disruption of IRE1 signaling using a IRE1a Endoribonuclease Nanoluciferase Assay. Briefly, 25×10^5 293T cells were seeded in a 10 cm^2 tissue culture plate. About 24 hours later, the cells were transfected with Effectene. In a 15 mL tube, the following was added: 2 ug XBP1 luciferase reporter plasmid (PGK-Luc2-P2A-XBP1u-Nanoluciferase-Pest); 300 ul EC buffer; and 16 ul Enhancer, followed by incubation at room temp for 5 minutes. Next, 60 ul Effectene (Qiagen 301427) was added, followed by incubation at room temperature for 10 minutes. 2.6 mL cDMEM media was added. Old media was aspirated from the cells, followed by addition of 7 mL fresh media. Full transfection mixture was added dropwise to cells. Cells were incubated for 6 hours, followed by trypsinization, centrifugation and resuspension in 11 mL fresh cDMEM media. 100 uL of cells were plated per a well in a 96 well plate. A day later, ER stressors of choice +/−inhibitors were added. To harvest, media was aspirated from cells completely, then 50 uL 1× passive lysis buffer (Promega: E1941) was added per well and put on shaker (300 rpm) for 30 minutes at room temperature. Cells were centrifuged, and 15 uL sample per well was added to a new, opaque white 384 well plate (Corning 3570). 15 uL OneGlo (nanoluciferase kit, Promega N1630) was added. Plates were spun down, placed on shaker (300 rpm) for 10 minutes. Plates were read on luminometer, 1000 ms integration time per well. 15 uL Stop an Glo (nanoluciferase kit) was added. Plates were spun down, placed on shaker (300 rpm) for 10 minutes. Plates were read on luminometer, 1000 ms second integration time per well. Recordings are provided below in Table 4.

IRE1a [2] = target: T1, IRE1a (Homo sapiens, UniProt O75460); assay: In vitro FRET assay (IRE1a cleavage of XBP1 RNA probe); assay type: biochemical; settings: 2 nM SignalChem IRE1a, tested as Formic Acid Salt (37: HCl Salt)
T1 construct: purchased SignalChem
Experimental: In vitro FRET assay was performed to evaluate the ability of select compounds to inhibit IRE1, the results of which are summarized in Table 3. To perform the in vitro FRET assay, 1× complete assay buffer (CAB: […], 50 mM sodium citrate pH 7.15, 1 mM magnesium acetate, 0.02% tween 20) was used to SignalChem IRE1a protein to a final concentration of 2 nM. Selected compounds were serially diluted with DMSO in a non-binding black 384-well plate for a total of 15 ul in each well. 2 ul of the serially diluted compound or DMSO control were then added to new wells containing 98 ul of 1× CAB, for a total volume of 100 ul, 10 ul of which were then transferred to wells of a new plate. 5 ul of the diluted IRE1a was then added to each well. 5 ul of a […] XBP1 RNA probe was then added to each well. Fluorescence was then read over 30 minutes in kinetic mode (485/515 nm).
Two RNA probes were used, XBP1 wildtype (SEQ ID NO: 2) which is able to be spliced by active IRE1a or XBP1 mutant (SEQ ID NO: 3) which is unable to be spliced. Each probe contained a 5′ 6-FAM modification and a 3′ IOWA black FQ modification. […]

T1 sequence (O75460 19-977): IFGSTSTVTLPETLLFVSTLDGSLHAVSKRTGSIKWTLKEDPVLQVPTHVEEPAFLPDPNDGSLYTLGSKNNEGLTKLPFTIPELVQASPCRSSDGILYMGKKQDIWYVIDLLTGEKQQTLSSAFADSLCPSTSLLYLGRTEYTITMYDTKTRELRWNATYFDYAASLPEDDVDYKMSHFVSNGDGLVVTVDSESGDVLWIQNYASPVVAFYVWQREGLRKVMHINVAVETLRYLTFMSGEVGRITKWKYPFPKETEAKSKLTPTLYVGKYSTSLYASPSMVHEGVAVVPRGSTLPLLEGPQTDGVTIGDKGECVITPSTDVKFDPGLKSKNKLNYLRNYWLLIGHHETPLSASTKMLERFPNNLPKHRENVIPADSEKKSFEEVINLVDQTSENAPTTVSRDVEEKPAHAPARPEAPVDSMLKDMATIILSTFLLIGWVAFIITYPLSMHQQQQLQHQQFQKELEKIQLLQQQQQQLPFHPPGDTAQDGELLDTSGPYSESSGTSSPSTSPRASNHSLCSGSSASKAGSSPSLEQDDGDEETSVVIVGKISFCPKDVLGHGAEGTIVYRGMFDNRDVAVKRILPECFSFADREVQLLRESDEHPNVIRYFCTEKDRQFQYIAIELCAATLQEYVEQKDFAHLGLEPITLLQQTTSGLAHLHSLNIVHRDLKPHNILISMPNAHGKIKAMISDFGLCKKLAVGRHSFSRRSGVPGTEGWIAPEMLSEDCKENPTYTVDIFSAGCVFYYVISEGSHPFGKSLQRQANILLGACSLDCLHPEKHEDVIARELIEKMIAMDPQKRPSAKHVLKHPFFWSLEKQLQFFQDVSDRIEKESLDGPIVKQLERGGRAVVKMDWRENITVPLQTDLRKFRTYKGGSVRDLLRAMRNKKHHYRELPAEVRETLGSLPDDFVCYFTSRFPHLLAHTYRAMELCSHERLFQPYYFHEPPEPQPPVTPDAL

Row | EC50 (IRE1a [1]) [nM] | IC50 (IRE1a [2]) [nM] | Structure (SMILES)
1 | ≤ 5 | ≤ 5 | CCc1cc(-c2ccc(NS(=O)(=O)c3ccccc3Cl)nc2C)cc2cnc(NC3CCC(N(C)C)C[C@@H]3F)nc12 (stereo in doubt) [Compound 151, 2-chloro-N-(5-(2-(((1R,2S,4R)-4-(dimethylamino)-2-fluorocyclohexyl)amino)-8-ethylquinazolin-6-yl)-6-methylpyridin-2-yl)benzenesulfonamide]
2 | ≤ 5 | ≤ 5 | N[C@H]1CC[C@H](Nc2ncc3cc(-c4ccc(NS(=O)(=O)c5ccccc5Cl)cc4)ccc3n2)CC1 [Compound 26, N-(4-(2-(((1r,4r)-4-aminocyclohexyl)amino)quinazolin-6-yl)phenyl)-2-chlorobenzene-sulfonamide]
3 | ≤ 5 | ≤ 5 | CCc1cc(-c2cc(NS(=O)(=O)c3ccccc3Cl)no2)cc2cnc(N[C@H]3CC[C@H](N)CC3)nc12 [Compound 44, N-(5-(2-(((1r,4r)-4-aminocyclohexyl)amino)-8-ethylquinazolin-6-yl)isoxazol-3-yl)-2-chlorobenzene-sulfonamide]
4 | 5 to 50 | ≤ 5 | CCCc1cc(-c2cc(NS(=O)(=O)c3ccccc3Cl)nn2C)cc2cnc(N[C@H]3CC[C@H](N)CC3)nc12 [Compound 47, N-(5-(2-(((1r,4r)-4-aminocyclohexyl)amino)-8-propylquinazolin-6-yl)-1-methyl-1H-pyrazol-3-yl)-2-chlorobenzene-sulfonamide]
5 | 5 to 50 | ≤ 5 | N[C@H]1CC[C@H](Nc2ncc3cc(-c4ccc(NS(=O)(=O)c5ccccc5Cl)cc4F)ccc3n2)CC1 [Compound 48, N-(4-(2-(((1r,4r)-4-amiocyclohexyl)amino)quinazolin-6-yl)-3-fluorophenyl)-2-chlorobenzene-sulfonamide]
6 | 50 to 100 | ≤ 5 | N[C@H]1CC[C@H](Nc2ncc3cc(-c4ncc(NS(=O)(=O)c5ccccc5Cl)cc4F)ccc3n2)CC1 [Compound 51, N-(6-(2-(((1r,4r)-4-aminocyclohexyl)amino)quinazolin-6-yl)-5-fluoropyridin-3-yl)-2-chlorobenzene-sulfonamide]
7 | ≤ 5 | ≤ 5 | N[C@H]1CC[C@H](Nc2ncc3cc(-c4cc(F)c(NS(=O)(=O)c5ccccc5Cl)cc4F)ccc3n2)CC1 [Compound 53, N-(4-(2-(((1r,4r)-4-aminocyclohexyl)amino)quinazolin-6-yl)-2,5-difluorophenyl)-2-chlorobenzene-sulfonamide]
8 | 5 to 50 | ≤ 5 | N[C@H]1CC[C@H](Nc2ncc3cc(-c4cnc(NS(=O)(=O)c5ccccc5Cl)c(F)c4)ccc3n2)CC1 [Compound 54, N-(5-(2-(((1r,4r)-4-aminocyclohexyl)amino)quinazolin-6-yl)-3-fluoropyridin-2-yl)-2-chlorobenzene-sulfonamide]
9 | ≤ 5 | ≤ 5 | N[C@H]1CC[C@H](Nc2ncc3cc(-c4ccc(NS(=O)(=O)c5ccccc5Cl)c(F)c4F)ccc3n2)CC1 [Compound 56, N-(4-(2-(((1r,4r)-4-aminocyclohexyl)amino)quinazolin-6-yl)-2,3-difluorophenyl)-chlorobenzene-sulfonamide]
10 | ≤ 5 | ≤ 5 | N[C@H]1CC[C@H](Nc2cc3ccc(-c4ccc(NS(=O)(=O)c5ccccc5Cl)c(F)c4)cc3cn2)CC1 [Compound 57, N-(4-(3-(((1r,4r)-4-aminocyclohexyl)amino)isoquinolin-7-yl)-2-fluorophenyl)-2-chlorobenzene-sulfonamide]
11 | 50 to 100 | 5 to 50 | CCc1cc(-c2ccc(NS(=O)(=O)c3ccccc3Cl)c(F)c2)cc2cnc(N[C@H]3CC[C@H](NC(C)=O)CC3)nc12 [Compound 59]
12 | ≤ 5 | ≤ 5 | CCc1cc(-c2ccc(NS(=O)(=O)c3ccccc3Cl)c(F)c2)cc2cnc(N[C@H]3CC[C@H](NC)CC3)nc12 [Compound 60, 2-chloro-N-(4-(8-ethyl-2-(((1r,4r)-4-(methylamino)cyclohexyl)amino)quinazolin-6-yl)-2-fluorophenyl) benzene sulfonamide]
13 | ≤ 5 | ≤ 5 | CCc1cc(-c2ccc(NS(=O)(=O)c3ccccc3Cl)nn2)cc2cnc(N[C@H]3CC[C@H](NC)CC3)nc12 [Compound 61, 2-chloro-N-(6-(8-ethyl-2-(((1r,4r)-4-(methylamino)cyclohexyl)amino)quinazolin-6-yl)pyridazin-3-yl)benzene-sulfonamide]
14 | 5 to 50 | ≤ 5 | N[C@H]1CC[C@H](Nc2ncc3cc(-c4c(F)cc(NS(=O)(=O)c5ccccc5Cl)cc4F)ccc3n2)CC1 [Compound 62, N-(4-(2-(((1r,4r)-4-aminocyclohexyl)amino)quinazolin-6-yl)-3,5-difluorophenyl)-chlorobenzene-sulfonamide]
15 | ≤ 5 | ≤ 5 | CCc1cc(-c2ccc(NS(=O)(=O)c3ccccc3Cl)nn2)cc2cnc(N[C@H]3CC[C@H](N(C)C)CC3)nc12 [Compound 64]
16 | 50 to 100 | ≤ 5 | CCc1cc(-c2cc(OC)c(NS(=O)(=O)c3ccccc3Cl)nn2)cc2cnc(N[C@H]3CC[C@H](N)CC3)nc12 [Compound 66, N-(6-(2-(((1r,4r)-4-aminocyclohexyl)amino)-8-ethylquinazolin-6-yl)-4-methoxypyridazin-3-yl)-2-chlorobenzene-sulfonamide]
17 | 50 to 100 | ≤ 5 | Cc1nc(NS(=O)(=O)c2ccccc2Cl)ncc1-c1ccc2nc(N[C@H]3CC[C@H](N)CC3)ncc2c1 [Compound 68, N-(5-(2-(((1r,4r)-4-aminocyclohexyl)amino)quinazolin-6-yl)-4-methylpyrimidin-2-yl)-2-chlorobenzene-sulfonamide]
18 | 100 to 10000 | ≤ 5 | CCc1cc(-c2ccc(NS(=O)(=O)c3ccccc3Cl)c(F)c2)cc2cnc(N[C@@H]3CCC[C@H](N)C3)nc12 [Compound 72, N-(4-(2-(((1R,3S)-3-aminocyclohexyl)amino)-8-ethylquinazolin-6-yl)-2-fluorophenyl)-2-chlorobenzene-sulfonamide]
19 | ≤ 5 | ≤ 5 | CCc1cc(-c2ccc(NS(=O)(=O)c3ccccc3Cl)c(F)c2)cc2cnc(N[C@@H]3CC[C@@H](N)[C@H](C)C3)nc12 [Compound 74, N-(4-(2-(((1R,3R,4R)-4-amino-3-methylcyclohexyl)amino)-8-ethylquinazolin-6-yl)-2-fluorophenyl)-2-chlorobenzene-sulfonamide]
20 | 100 to 10000 | ≤ 5 | N[C@H]1CCC[C@@H](Nc2ncc3cc(-c4ccc(NS(=O)(=O)c5ccccc5Cl)c(F)c4)ccc3n2)C1 [Compound 75, N-(4-(2-(((1R,3S)-3-aminocyclohexyl)amino)quinazolin-6-yl)-2-fluorophenyl)-2-chlorobenzene-sulfonamide]
21 | 5 to 50 | ≤ 5 | O=S(=O)(Nc1ccc(-c2ccc3nc(N[C@H]4CCCNC4)ncc3c2)cc1F)c1ccccc1Cl [Compound 76, (S)-2-chloro-N-(2-fluoro-4-(2-(piperdin-3-ylamino)quinazolin-6-yl)phenyl) benzenesulfon-amide]
22 | 5 to 50 | ≤ 5 | N[C@@H]1CC[C@@H](Nc2ncc3cc(-c4ccc(NS(=O)(=O)c5ccccc5Cl)c(F)c4)ccc3n2)C1 [Compound 77, N-(4-(2-(((1R,3R)-3-aminocyclopentyl)amino)quinazolin-6-yl)-2-fluorophenyl)-2-chlorobenzene-sulfonamide]
23 | ≤ 5 | ≤ 5 | CCc1cc(-c2ccc(NS(=O)(=O)c3ccccc3Cl)c(F)c2)cc2cnc(N[C@@H]3CC[C@@H](N)C3)nc12 [Compound 78, N-(4-(2-(((1R,3R)-3-aminocyclopentyl)amino)-8-ethylquinazolin-6-yl)-2-fluorophenyl)-2-chlorobenzene-sulfonamide]
24 | 100 to 10000 |  | N[C@H]1CC[C@@H](Nc2ncc3cc(-c4ccc(NS(=O)(=O)c5ccccc5Cl)c(F)c4)ccc3n2)C1 [Compound 80, N-(4-(2-(((1R,3S)-3-aminocyclopentyl)amino)quinazolin-6-yl)-2-fluorophenyl)-2-chlorobenzene-sulfonamide]
